Experimental data taken from publication PMC7011920, “Synthesis and biological evaluation of stilbene derivatives coupled to NO donors as potential antidiabetic agents” (Journal of Enzyme Inhibition and Medicinal Chemistry, 2018).

Tested on: STZ-induced diabetic mice
Assay: Acute hypoglycaemic assay in STZ-diabetic mice
Format: in vivo
Conditions: for Blood glucose concentration: mean ± SEM, six mice
Protocol: The antidiabetic activity was determined by using a standard method. […] Especially, compound 7c caused significant decreases in blood glucose levels when compared with vehicle-treated groups (p < .05). […] In STZ-diabetic animals, the hypoglycaemic effect of pterostilbene (40 mg/kg of bw) was larger than 50% since 5 h and persisted throughout the experiment. Target compound 7c (40 mg/kg of bw) caused significant decreases in blood glucose levels compared with pterostilbene (40 mg/kg of bw).
Type II DM was induced in mice by a single intraperitoneal injection of freshly prepared STZ (Sigma Aldrich, St. Louis, MO) dissolved in 0.1 M citrate buffer, pH 4.5, in a […] of 120 mg/kg of bw. After seven days of STZ administration, blood glucose levels of each mouse were determined. Mice with blood glucose levels higher than 11 mM were considered diabetic and were included in the study.
STZ-induced diabetic mice and normal mice were placed in single cages with wire-net floors and deprived of food for 12 h before experimentation but allowed free access to tap water throughout. The compounds (at the doses of 10, 40, and 100 mg/kg of bw) were suspended in 0.05% Tween-80 in saline solution. Glibenclamide (10 mg/kg of bw) was suspended in the same vehicle. The target compounds were freshly prepared immediately before experimentation and administered by the intragastrical route at the doses of 10 ml/kg of bw. Control mice received only the vehicle (0.05% Tween-80 in saline solution) by the same route. Blood glucose levels were measured at 0, 1.5, 3, 5, 7, and 9 h after drugs administration.

With COc1cc(/C=C/c2ccc(OCCCCCCO[N+](=O)[O-])cc2)cc(OC)c1 [3c] the Blood glucose concentration (dose 10 mg/kg per os, 0 h) was 22.6 ± 7.0 mM, the Blood glucose concentration (dose 10 mg/kg per os, 1.5 h) was 18.1 ± 7.3 mM and the “% Variation of glycaemia” value (dose 10 mg/kg per os, 1.5 h vs 0 h) was “–20.13%”. The Blood glucose concentration (dose 10 mg/kg per os, 3 h) was 17.0 ± 6.6 mM, the “% Variation of glycaemia” value (dose 10 mg/kg per os, 3 h vs 0 h) was “–24.78%” and the Blood glucose concentration (dose 10 mg/kg per os, 5 h) was 16.8 ± 6.1 mM. For the same compound, the “% Variation of glycaemia” value (dose 10 mg/kg per os, 5 h vs 0 h) was “–25.66%”, the Blood glucose concentration (dose 10 mg/kg per os, 7 h) was 15.7 ± 4.3 mM and the “% Variation of glycaemia” value (dose 10 mg/kg per os, 7 h vs 0 h) was “–30.53%”. For the same compound, the Blood glucose concentration (dose 10 mg/kg per os, 9 h) was 13.2 ± 3.5 mM, the “% Variation of glycaemia” value (dose 10 mg/kg per os, 9 h vs 0 h) was “–41.59%” and the Blood glucose concentration (dose 40 mg/kg per os, 0 h) was 21.7 ± 5.7 mM. The Blood glucose concentration (dose 40 mg/kg per os, 1.5 h) was 17.2 ± 5.6 mM, the “% Variation of glycaemia” value (dose 40 mg/kg per os, 1.5 h vs 0 h) was “–20.74%” and the Blood glucose concentration (dose 40 mg/kg per os, 3 h) was 16.3 ± 7.5 mM. The “% Variation of glycaemia” value (dose 40 mg/kg per os, 3 h vs 0 h) was “–25.04%”, the Blood glucose concentration (dose 40 mg/kg per os, 5 h) was 15.7 ± 6.4 mM and the “% Variation of glycaemia” value (dose 40 mg/kg per os, 5 h vs 0 h) was “–27.57%”. The Blood glucose concentration (dose 40 mg/kg per os, 7 h) was 14.3 ± 9.6 mM, the “% Variation of glycaemia” value (dose 40 mg/kg per os, 7 h vs 0 h) was “–34.02%” and the Blood glucose concentration (dose 40 mg/kg per os, 9 h) was 9.9 ± 4.6 mM. The “% Variation of glycaemia” value (dose 40 mg/kg per os, 9 h vs 0 h) was “–54.30%”, the Blood glucose concentration (dose 100 mg/kg per os, 0 h) was 18.6 ± 1.9 mM and the Blood glucose concentration (dose 100 mg/kg per os, 1.5 h) was 15.9 ± 3.6 mM. For the same compound, the “% Variation of glycaemia” value (dose 100 mg/kg per os, 1.5 h vs 0 h) was “–14.34%”, the Blood glucose concentration (dose 100 mg/kg per os, 3 h) was 15.2 ± 3.0 mM and the “% Variation of glycaemia” value (dose 100 mg/kg per os, 3 h vs 0 h) was “–18.28%”. The Blood glucose concentration (dose 100 mg/kg per os, 5 h) was 15.1 ± 3.7 mM, the “% Variation of glycaemia” value (dose 100 mg/kg per os, 5 h vs 0 h) was “–19.00%” and the Blood glucose concentration (dose 100 mg/kg per os, 7 h) was 13.4 ± 4.7 mM. The “% Variation of glycaemia” value (dose 100 mg/kg per os, 7 h vs 0 h) was “–28.23%”, the Blood glucose concentration (dose 100 mg/kg per os, 9 h) was 11.1 ± 3.0 mM and the “% Variation of glycaemia” value (dose 100 mg/kg per os, 9 h vs 0 h) was “–40.32%”.
